Data taken from ChEMBL document CHEMBL1148857, “In vitro and in vivo profile of 5-[(4'-trifluoromethyl-biphenyl-2-carbonyl)-amino]-1H-indole-2-carboxylic acid benzylmethyl carbamoylamide (dirlotapide), a novel potent MTP inhibitor for obesity” (Bioorg Med Chem Lett, 2007).
Activity calls are given as the source filed them. No cut-off for these calls is given here.

Tests used:
[1] = target: Microsomal triglyceride transfer protein large subunit (Homo sapiens, UniProt P55157); test: Inhibition of MTP assessed as inhibition of apoB secretion from human HepG2 cells; format: cell-based
Chain of Microsomal triglyceride transfer protein large subunit (P55157 whole entry): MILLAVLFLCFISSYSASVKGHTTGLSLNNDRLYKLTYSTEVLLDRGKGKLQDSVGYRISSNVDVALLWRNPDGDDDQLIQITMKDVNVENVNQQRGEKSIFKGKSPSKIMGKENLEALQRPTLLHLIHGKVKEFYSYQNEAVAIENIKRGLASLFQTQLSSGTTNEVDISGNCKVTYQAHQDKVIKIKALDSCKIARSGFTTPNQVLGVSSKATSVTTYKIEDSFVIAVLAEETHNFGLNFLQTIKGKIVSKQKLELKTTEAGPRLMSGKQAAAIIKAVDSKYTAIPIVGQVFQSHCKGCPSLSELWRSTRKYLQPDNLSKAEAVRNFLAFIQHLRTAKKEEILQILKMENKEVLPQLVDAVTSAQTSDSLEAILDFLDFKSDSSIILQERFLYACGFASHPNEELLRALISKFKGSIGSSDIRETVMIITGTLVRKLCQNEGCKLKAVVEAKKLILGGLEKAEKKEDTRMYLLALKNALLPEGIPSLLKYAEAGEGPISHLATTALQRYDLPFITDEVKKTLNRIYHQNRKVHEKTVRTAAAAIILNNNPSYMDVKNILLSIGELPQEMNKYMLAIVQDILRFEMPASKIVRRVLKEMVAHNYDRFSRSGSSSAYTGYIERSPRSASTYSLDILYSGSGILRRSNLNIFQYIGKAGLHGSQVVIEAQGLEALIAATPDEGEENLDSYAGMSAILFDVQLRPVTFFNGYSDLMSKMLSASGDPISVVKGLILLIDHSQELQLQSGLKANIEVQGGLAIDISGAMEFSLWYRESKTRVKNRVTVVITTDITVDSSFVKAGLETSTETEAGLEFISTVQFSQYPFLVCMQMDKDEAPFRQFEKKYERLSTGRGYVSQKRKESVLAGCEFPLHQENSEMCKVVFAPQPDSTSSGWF

Homo sapiens [2] = organism: Homo sapiens; test: Inhibition of GABA receptor at 1 uM
[3] = target: Adrenergic receptor alpha-1 (Homo sapiens) (UniProt P35348+P25100+P35368); test: Inhibition of adrenergic a1 receptor at 1 uM; format: protein assay
[4] = target: B1 bradykinin receptor (Homo sapiens) (UniProt P46663); test: Inhibition of bradykinin B1 receptor at 1 uM
Chain of B1 bradykinin receptor (Homo sapiens) (P46663 whole entry): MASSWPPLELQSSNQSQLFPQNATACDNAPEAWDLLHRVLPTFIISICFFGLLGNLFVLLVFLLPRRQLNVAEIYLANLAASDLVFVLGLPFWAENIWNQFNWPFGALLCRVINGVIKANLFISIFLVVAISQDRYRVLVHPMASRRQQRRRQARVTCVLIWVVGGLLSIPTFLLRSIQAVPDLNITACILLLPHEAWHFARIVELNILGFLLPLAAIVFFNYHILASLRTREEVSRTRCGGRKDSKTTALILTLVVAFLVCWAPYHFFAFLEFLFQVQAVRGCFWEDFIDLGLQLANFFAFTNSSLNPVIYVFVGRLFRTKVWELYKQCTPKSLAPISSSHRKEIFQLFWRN

[5] = target: D(1A) dopamine receptor (Homo sapiens) (UniProt P21728); test: Inhibition of dopamine D1 receptor at 1 uM
Chain of D(1A) dopamine receptor (Homo sapiens) (P21728 whole entry): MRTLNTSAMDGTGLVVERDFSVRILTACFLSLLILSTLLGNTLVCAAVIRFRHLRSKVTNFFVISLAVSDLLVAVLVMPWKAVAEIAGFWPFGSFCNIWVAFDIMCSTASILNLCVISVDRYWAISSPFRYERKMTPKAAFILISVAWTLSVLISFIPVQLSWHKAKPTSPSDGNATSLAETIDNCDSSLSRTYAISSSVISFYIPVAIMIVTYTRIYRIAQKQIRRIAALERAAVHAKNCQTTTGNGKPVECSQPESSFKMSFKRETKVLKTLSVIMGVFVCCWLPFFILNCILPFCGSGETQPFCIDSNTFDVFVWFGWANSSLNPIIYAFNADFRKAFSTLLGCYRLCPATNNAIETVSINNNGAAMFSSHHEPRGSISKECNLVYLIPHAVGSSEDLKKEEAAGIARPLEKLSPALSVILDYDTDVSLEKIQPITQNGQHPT

[6] = target: Muscarinic acetylcholine receptor M1 (Homo sapiens) (UniProt P11229); test: Inhibition of muscarinic M1 receptor at 1 uM
Chain of Muscarinic acetylcholine receptor M1 (Homo sapiens) (P11229 whole entry): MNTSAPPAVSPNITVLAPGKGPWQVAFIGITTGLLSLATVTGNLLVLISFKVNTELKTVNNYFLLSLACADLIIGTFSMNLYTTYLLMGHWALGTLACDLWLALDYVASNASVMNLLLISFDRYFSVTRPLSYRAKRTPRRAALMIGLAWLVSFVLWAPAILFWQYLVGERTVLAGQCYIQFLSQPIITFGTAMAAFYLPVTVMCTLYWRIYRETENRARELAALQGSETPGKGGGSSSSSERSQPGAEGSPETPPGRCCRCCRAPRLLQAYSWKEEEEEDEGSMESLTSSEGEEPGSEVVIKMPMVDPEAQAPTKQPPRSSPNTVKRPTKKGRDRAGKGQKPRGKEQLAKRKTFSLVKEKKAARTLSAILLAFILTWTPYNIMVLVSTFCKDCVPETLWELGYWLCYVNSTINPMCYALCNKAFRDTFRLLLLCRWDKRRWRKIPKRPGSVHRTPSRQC

[7] = target: Muscarinic acetylcholine receptor M2 (Homo sapiens) (UniProt P08172); test: Inhibition of muscarinic M2 receptor at 1 uM
Chain of Muscarinic acetylcholine receptor M2 (Homo sapiens) (P08172 whole entry): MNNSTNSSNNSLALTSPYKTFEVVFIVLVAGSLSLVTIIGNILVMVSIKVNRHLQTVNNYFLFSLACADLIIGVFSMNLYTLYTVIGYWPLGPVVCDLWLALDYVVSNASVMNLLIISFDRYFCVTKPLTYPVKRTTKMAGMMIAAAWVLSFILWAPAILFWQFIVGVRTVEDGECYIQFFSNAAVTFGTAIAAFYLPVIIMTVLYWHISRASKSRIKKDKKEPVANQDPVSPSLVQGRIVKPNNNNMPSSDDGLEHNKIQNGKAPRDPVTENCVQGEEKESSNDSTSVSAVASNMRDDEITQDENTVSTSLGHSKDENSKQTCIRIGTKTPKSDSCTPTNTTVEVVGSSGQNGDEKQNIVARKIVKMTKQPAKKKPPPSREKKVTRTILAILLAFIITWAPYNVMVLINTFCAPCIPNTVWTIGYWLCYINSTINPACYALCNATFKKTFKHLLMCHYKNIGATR

Homo sapiens [8] = organism: Homo sapiens; test: Inhibition of neuronal nicotinic receptor at 1 uM
Homo sapiens [9] = organism: Homo sapiens; test: Inhibition of muscle nicotinic receptor at 1 uM
[10] = target: Glucocorticoid receptor (Homo sapiens) (UniProt P04150); test: Inhibition of glucocorticoid receptor at 1 uM
Chain of Glucocorticoid receptor (Homo sapiens) (P04150 whole entry): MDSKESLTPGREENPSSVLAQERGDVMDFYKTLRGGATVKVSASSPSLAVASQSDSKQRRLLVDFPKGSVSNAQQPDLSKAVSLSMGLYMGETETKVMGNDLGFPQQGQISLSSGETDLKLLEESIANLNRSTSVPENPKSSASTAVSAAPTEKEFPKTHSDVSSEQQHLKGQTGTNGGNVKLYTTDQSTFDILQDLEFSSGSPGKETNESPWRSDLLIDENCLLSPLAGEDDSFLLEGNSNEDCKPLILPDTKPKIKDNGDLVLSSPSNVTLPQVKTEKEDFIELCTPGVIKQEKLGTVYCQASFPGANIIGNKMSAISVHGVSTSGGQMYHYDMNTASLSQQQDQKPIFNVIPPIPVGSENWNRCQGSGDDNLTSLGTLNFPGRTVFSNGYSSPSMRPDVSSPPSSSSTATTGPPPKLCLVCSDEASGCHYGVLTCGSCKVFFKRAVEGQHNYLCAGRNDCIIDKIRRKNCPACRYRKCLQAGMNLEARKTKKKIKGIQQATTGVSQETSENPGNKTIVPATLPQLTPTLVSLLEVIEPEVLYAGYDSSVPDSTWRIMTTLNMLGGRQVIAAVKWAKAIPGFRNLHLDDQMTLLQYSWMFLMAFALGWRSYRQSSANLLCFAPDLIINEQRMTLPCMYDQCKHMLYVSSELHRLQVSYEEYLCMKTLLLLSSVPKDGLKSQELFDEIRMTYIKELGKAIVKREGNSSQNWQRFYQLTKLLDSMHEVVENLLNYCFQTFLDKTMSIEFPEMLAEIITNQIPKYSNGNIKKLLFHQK

[11] = Intrinsic clearance in rat microsomes; format: ADME, Microsome
[12] = Volume of distribution at steady state in Beagle dog at 1 mg/kg, iv; format: ADME, organism-based, Canis lupus familiaris; parameters: dose 1 mg/kg, route intravenous; conditions: in vivo, read-out: Vdss
[13] = AUC (0 to t) in rat at 0.3 mg/kg, iv; format: ADME, organism-based; parameters: dose 0.3 mg/kg, route intravenous; conditions: plasma
[14] = AUC (0 to t) in rat at 5 mg/kg, iv; format: ADME, organism-based; parameters: dose 5 mg/kg, route intravenous; conditions: plasma
[15] = AUC (0 to infinity) in rat at 5 mg/kg, iv; format: ADME, organism-based; parameters: time infinity, dose 5 mg/kg, route intravenous; conditions: plasma
[16] = Half life in portal cannulated Beagle dog at 1 mg/kg, po; format: ADME, organism-based, Canis lupus familiaris; parameters: dose 1 mg/kg, route oral; conditions: in vivo
[17] = AUC (0 to infinity) in male rat at 30 mg/kg, po; format: ADME, organism-based; parameters: time infinity, dose 30 mg/kg, route oral; conditions: plasma
[18] = Tmax in portal cannulated Beagle dog at 1 mg/kg, po; format: ADME, organism-based, Canis lupus familiaris; parameters: dose 1 mg/kg, route oral; conditions: in vivo
[19] = Bioavailability in Beagle dog at 5 mg/kg, po; format: ADME, organism-based, Canis lupus familiaris; conditions: in vivo
[20] = Permeability from apical to basolateral side of the Caco-2 cell membrane at 10 uM in presence of calcium; format: ADME, cell-based; conditions: human

For CN(Cc1ccccc1)C(=O)[C@@H](NC(=O)c1cc2cc(NC(=O)c3ccccc3-c3ccc(C(F)(F)F)cc3)ccc2n1C)c1ccccc1 [DIRLOTAPIDE], the IC50 [1] was 2.9 nM, the Activity (Homo sapiens [2]) was “inactive” and the Activity [3] was “inactive”. The Activity [4] was “inactive”, the Activity [5] was “inactive” and the Activity [6] was “inactive”. For the same compound, the Activity [7] was “inactive”, the Activity (Homo sapiens [8]) was “inactive” and the Activity (Homo sapiens [9]) was “inactive”. For the same compound, the Activity [10] was “inactive”, the CLint scaled [11] was 645 mL/min/kg and the Vd [12] was 1 L/kg. For the same compound, the AUC(0-t) [13] was 51 ng·h/mL, the AUC(0-t) [14] was 5610 ng·h/mL and the AUC(0-inf) [15] was 5890 ng·h/mL. It also gave a half-life [16] of 6.8 h, an AUC(0-inf) [17] of 379 ng·h/mL and a Tmax [18] of 6.3 h. For the same compound, the bioavailability [19] was 12% and the Papp A→B at 10 µM [20] was 0.4 ×10⁻⁶ cm/s.
